# Data taken from patent publication US10456407B2, “Combination therapy for treating cancer” (Epizyme, Inc., priority 2015, dated 2019).
# System: WSU-DLCL2 cells
# Test: RT2 Glucocorticoid signaling PCR array, WSU-DLCL2 (WSU) cell line (Table 4c)
# Type: cell-based
smiles,measurement,setting,value
"C[C@]12C=CC(=O)C=C1CC[C@@H]1[C@@H]2[C@@H](O)C[C@@]2(C)[C@H]1CC[C@]2(O)C(=O)CO [Prednisolone, prednisolone]","Ct Values, ACTB",gene ACTB,14.572
same,"ΔCT (B2M), ACTB",gene ACTB,−4.573
same,"Ct Values, ADARB1",gene ADARB1,26.108
same,"ΔCT (B2M), ADARB1",gene ADARB1,6.963
same,"ΔΔCT, ADARB1","gene ADARB1, compared to DMSO",0.097
same,"Ct Values, AFF1",gene AFF1,27.334
same,"ΔCT (B2M), AFF1",gene AFF1,8.189
same,"ΔΔCT, AFF1","gene AFF1, compared to DMSO",−0.464
same,"Ct Values, AK2",gene AK2,20.433
same,"ΔCT (B2M), AK2",gene AK2,1.288
same,"ΔΔCT, AK2","gene AK2, compared to DMSO",0.094
same,"Ct Values, AMPD3",gene AMPD3,27.943
same,"ΔCT (B2M), AMPD3",gene AMPD3,8.798
same,"ΔΔCT, AMPD3","gene AMPD3, compared to DMSO",−0.219
same,"Ct Values, ANGPTL4",gene ANGPTL4,30.810
same,"ΔCT (B2M), ANGPTL4",gene ANGPTL4,11.665
same,"ΔΔCT, ANGPTL4","gene ANGPTL4, compared to DMSO",−0.329
same,"Ct Values, ANXA4",gene ANXA4,27.406
same,"ΔCT (B2M), ANXA4",gene ANXA4,8.261
same,"ΔΔCT, ANXA4","gene ANXA4, compared to DMSO",−0.025
same,"Ct Values, AQP1",gene AQP1,33.595
same,"ΔCT (B2M), AQP1",gene AQP1,14.450
same,"Ct Values, ARID68",gene ARID68,26.721
same,"ΔCT (B2M), ARID68",gene ARID68,7.576
same,"ΔΔCT, ARID68","gene ARID68, compared to DMSO",0.722
same,"Ct Values, ASPH",gene ASPH,21.939
same,"ΔCT (B2M), ASPH",gene ASPH,2.794
same,"ΔΔCT, ASPH","gene ASPH, compared to DMSO",−0.041
same,"Ct Values, ATF4",gene ATF4,19.659
same,"ΔCT (B2M), ATF4",gene ATF4,0.514
same,"ΔΔCT, ATF4","gene ATF4, compared to DMSO",0.090
same,"Ct Values, B2M",gene B2M (normaliser),19.145
same,"ΔCT (B2M), B2M",gene B2M (normaliser),0.000
same,"Ct Values, BCL6",gene BCL6,20.898
same,"ΔCT (B2M), BCL6",gene BCL6,1.753
same,"ΔΔCT, BCL6","gene BCL6, compared to DMSO",0.249
same,"Ct Values, CEBPA",gene CEBPA,27.838
same,"ΔCT (B2M), CEBPA",gene CEBPA,8.693
same,"ΔΔCT, CEBPA","gene CEBPA, compared to DMSO",−0.295
same,"Ct Values, CEBPB",gene CEBPB,25.775
same,"ΔCT (B2M), CEBPB",gene CEBPB,6.630
same,"ΔΔCT, CEBPB","gene CEBPB, compared to DMSO",0.814
same,"Ct Values, COL4A2",gene COL4A2,34.328
same,"ΔCT (B2M), COL4A2",gene COL4A2,15.183
same,"Ct Values, CREB1",gene CREB1,22.732
same,"ΔCT (B2M), CREB1",gene CREB1,3.587
same,"ΔΔCT, CREB1","gene CREB1, compared to DMSO",−0.133
same,"Ct Values, CREB3",gene CREB3,24.551
same,"ΔCT (B2M), CREB3",gene CREB3,5.406
same,"ΔΔCT, CREB3","gene CREB3, compared to DMSO",−0.453
same,"Ct Values, CREB3L4",gene CREB3L4,24.437
same,"ΔCT (B2M), CREB3L4",gene CREB3L4,5.292
same,"ΔΔCT, CREB3L4","gene CREB3L4, compared to DMSO",−0.330
same,"Ct Values, CYB561",gene CYB561,32.971
same,"ΔCT (B2M), CYB561",gene CYB561,13.826
same,"ΔΔCT, CYB561","gene CYB561, compared to DMSO",−3.598
same,"Ct Values, DDIT4",gene DDIT4,22.252
same,"ΔCT (B2M), DDIT4",gene DDIT4,3.107
same,"ΔΔCT, DDIT4","gene DDIT4, compared to DMSO",−1.672
same,"Ct Values, DUSP1",gene DUSP1,25.828
same,"ΔCT (B2M), DUSP1",gene DUSP1,6.683
same,"ΔΔCT, DUSP1","gene DUSP1, compared to DMSO",0.454
same,"Ct Values, EDN1",gene EDN1,30.019
same,"ΔCT (B2M), EDN1",gene EDN1,11.674
same,"Ct Values, EHD3",gene EHD3,27.724
same,"ΔCT (B2M), EHD3",gene EHD3,8.579
same,"ΔΔCT, EHD3","gene EHD3, compared to DMSO",−1.645
same,"Ct Values, FK8PS",gene FK8PS,21.321
same,"ΔCT (B2M), FK8PS",gene FK8PS,2.176
same,"ΔΔCT, FK8PS","gene FK8PS, compared to DMSO",−1.247
same,"Ct Values, FOSL2",gene FOSL2,33.647
same,"ΔCT (B2M), FOSL2",gene FOSL2,14.502
same,"ΔΔCT, FOSL2","gene FOSL2, compared to DMSO",2.843
same,"Ct Values, GAPDH",gene GAPDH,16.349
same,"ΔCT (B2M), GAPDH",gene GAPDH,−2.796
same,"Ct Values, GDPD1",gene GDPD1,28.235
same,"ΔCT (B2M), GDPD1",gene GDPD1,9.090
same,"ΔΔCT, GDPD1","gene GDPD1, compared to DMSO",0.169
same,"Ct Values, GHRHR",gene GHRHR,37.739
same,"ΔCT (B2M), GHRHR",gene GHRHR,18.644
same,"ΔΔCT, GHRHR","gene GHRHR, compared to DMSO",3.458
same,"Ct Values, GLUL",gene GLUL,31.475
same,"ΔCT (B2M), GLUL",gene GLUL,12.330
same,"Ct Values, GOT1",gene GOT1,22.841
same,"ΔCT (B2M), GOT1",gene GOT1,3.696
same,"ΔΔCT, GOT1","gene GOT1, compared to DMSO",0.262
same,"Ct Values, H6PD",gene H6PD,26.197
same,"ΔCT (B2M), H6PD",gene H6PD,7.052
same,"ΔΔCT, H6PD","gene H6PD, compared to DMSO",0.142
same,"Ct Values, HNRPLL",gene HNRPLL,24.750
same,"ΔCT (B2M), HNRPLL",gene HNRPLL,5.605
same,"ΔΔCT, HNRPLL","gene HNRPLL, compared to DMSO",1.026
same,"Ct Values, HPRT1",gene HPRT1,21.361
same,"ΔCT (B2M), HPRT1",gene HPRT1,2.216
same,"Ct Values, IL1RN",gene IL1RN,33.599
same,"ΔCT (B2M), IL1RN",gene IL1RN,14.454
same,"ΔΔCT, IL1RN","gene IL1RN, compared to DMSO",1.298
same,"Ct Values, IL10",gene IL10,34.306
same,"ΔCT (B2M), IL10",gene IL10,15.161
same,"Ct Values, KLF9",gene KLF9,30.105
same,"ΔCT (B2M), KLF9",gene KLF9,10.960
same,"ΔΔCT, KLF9","gene KLF9, compared to DMSO",−0.431
same,"Ct Values, KLF13",gene KLF13,23.792
same,"ΔCT (B2M), KLF13",gene KLF13,4.647
same,"ΔΔCT, KLF13","gene KLF13, compared to DMSO",−0.442
same,"Ct Values, LOX",gene LOX,34.511
same,"ΔCT (B2M), LOX",gene LOX,15.366
same,"ΔΔCT, LOX","gene LOX, compared to DMSO",0.550
same,"Ct Values, MERTK",gene MERTK,32.524
